Where two headings read alike, the source gives them in different places.

What all share (test): TGFα-shedding assay-based GPCR screening with chimeric Gα subunit proteins
Assay type in all cases: cell-based

Test [1] addresses T1, 348 GPCRs (Homo sapiens, UniProt P50406).
T1 construct: expressed in transfected cells; host or cells: HEK293A
To be noted: 10µM, Favipiravir 100μM.

For test [2], the target named is T2, 348 GPCRs (Homo sapiens, UniProt P25100).
T2 construct: expressed in transfected cells; host or cells: HEK293A
T2 sequence (P25100 1-572): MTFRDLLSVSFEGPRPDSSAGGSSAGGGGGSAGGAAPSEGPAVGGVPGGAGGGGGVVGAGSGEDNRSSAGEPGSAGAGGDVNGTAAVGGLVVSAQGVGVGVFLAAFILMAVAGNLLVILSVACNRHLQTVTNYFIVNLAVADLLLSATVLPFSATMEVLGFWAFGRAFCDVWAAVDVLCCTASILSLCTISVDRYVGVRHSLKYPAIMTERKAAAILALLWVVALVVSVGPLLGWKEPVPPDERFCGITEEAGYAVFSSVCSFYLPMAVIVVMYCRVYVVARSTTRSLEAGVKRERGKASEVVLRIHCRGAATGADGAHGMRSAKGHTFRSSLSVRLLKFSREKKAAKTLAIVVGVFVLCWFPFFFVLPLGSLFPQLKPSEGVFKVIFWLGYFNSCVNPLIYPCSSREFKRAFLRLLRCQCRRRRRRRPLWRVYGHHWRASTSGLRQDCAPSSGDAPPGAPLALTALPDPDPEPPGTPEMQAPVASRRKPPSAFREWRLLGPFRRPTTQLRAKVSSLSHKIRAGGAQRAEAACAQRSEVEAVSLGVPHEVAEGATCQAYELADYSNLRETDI

For test [3], the target named is T3, 348 GPCRs (Homo sapiens, UniProt Q9GZN0).
T3 construct: expressed in transfected cells; host or cells: HEK293A
T3 sequence (Q9GZN0 whole entry): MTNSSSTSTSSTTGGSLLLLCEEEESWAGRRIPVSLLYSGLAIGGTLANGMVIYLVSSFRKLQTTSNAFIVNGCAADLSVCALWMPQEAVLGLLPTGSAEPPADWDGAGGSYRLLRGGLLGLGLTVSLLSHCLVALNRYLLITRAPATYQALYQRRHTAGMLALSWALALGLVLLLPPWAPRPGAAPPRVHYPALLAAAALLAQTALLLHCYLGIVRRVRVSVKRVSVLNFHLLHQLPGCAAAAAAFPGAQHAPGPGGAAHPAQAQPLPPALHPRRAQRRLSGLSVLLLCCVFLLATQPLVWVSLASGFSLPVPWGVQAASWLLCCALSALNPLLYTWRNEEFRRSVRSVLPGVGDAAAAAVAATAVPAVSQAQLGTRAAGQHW
To be noted: 10µM, Favipiravir 100μM.

Test [4] has as its target 348 GPCRs (Homo sapiens, UniProt Q8TDS4).
Test [5] concerns the target T4, 348 GPCRs (Homo sapiens, UniProt Q8TDV2).
T4 construct: expressed in transfected cells; host or cells: HEK293A
To be noted: 10µM, Favipiravir 100μM.

The target of test [6] is T5, 348 GPCRs (Homo sapiens, UniProt P35348).
T5 construct: expressed in transfected cells; host or cells: HEK293A
T5 sequence (P35348 1-466): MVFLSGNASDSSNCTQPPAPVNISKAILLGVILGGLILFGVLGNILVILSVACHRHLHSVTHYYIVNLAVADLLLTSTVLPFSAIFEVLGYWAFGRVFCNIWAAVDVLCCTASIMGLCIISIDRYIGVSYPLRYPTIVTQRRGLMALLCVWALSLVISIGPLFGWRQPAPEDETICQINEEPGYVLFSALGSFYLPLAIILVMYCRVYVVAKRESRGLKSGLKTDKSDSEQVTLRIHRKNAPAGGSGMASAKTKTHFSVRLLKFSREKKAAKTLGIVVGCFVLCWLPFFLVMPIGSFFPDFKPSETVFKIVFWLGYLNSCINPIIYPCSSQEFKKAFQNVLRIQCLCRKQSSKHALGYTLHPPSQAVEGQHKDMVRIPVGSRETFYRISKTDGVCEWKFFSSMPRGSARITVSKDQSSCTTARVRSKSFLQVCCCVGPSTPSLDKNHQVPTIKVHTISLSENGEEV

Test [7] has as its target T6, 348 GPCRs (Homo sapiens, UniProt Q9HBW9).
T6 construct: expressed in transfected cells; host or cells: HEK293A
T6 sequence (Q9HBW9 20-690): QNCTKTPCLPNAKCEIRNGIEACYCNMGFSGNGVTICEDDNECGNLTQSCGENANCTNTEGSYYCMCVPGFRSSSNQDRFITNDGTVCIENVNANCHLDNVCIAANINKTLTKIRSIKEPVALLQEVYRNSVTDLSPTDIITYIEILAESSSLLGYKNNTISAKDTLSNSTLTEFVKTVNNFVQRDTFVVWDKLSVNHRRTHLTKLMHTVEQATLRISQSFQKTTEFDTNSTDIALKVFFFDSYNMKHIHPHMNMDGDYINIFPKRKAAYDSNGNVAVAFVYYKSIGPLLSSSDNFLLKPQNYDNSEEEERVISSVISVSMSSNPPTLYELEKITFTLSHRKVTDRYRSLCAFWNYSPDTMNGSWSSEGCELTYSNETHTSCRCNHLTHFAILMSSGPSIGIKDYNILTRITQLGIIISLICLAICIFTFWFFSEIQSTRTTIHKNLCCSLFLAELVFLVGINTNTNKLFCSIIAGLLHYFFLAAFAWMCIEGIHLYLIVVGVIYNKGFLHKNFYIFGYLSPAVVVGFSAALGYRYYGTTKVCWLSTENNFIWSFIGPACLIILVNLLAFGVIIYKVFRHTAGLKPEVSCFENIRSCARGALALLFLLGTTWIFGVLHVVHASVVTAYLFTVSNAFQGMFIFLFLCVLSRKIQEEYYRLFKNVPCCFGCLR
As to conditions: 10µM, Favipiravir 100μM.

The target of test [8] is 348 GPCRs (Homo sapiens, UniProt P28566). To be noted: 5-HT1E (5-hydroxytryptamine receptor 1E); 10µM, Favipiravir 100μM.
Sequence of 348 GPCRs (Homo sapiens, UniProt P28566) (P28566 whole entry): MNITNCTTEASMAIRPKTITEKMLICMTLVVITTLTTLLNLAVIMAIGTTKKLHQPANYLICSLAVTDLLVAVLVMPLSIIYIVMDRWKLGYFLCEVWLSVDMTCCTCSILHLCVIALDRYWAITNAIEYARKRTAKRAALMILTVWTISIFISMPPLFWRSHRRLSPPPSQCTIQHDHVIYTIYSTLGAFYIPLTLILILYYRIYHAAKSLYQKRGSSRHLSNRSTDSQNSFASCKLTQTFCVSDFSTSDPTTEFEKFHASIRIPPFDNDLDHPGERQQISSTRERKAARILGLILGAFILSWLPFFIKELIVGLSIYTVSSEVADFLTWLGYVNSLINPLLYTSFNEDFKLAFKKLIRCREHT
Test [9] deals with T7, 348 GPCRs (Homo sapiens, UniProt P20309).
T7 construct: expressed in transfected cells; host or cells: HEK293A
T7 sequence (P20309 whole entry): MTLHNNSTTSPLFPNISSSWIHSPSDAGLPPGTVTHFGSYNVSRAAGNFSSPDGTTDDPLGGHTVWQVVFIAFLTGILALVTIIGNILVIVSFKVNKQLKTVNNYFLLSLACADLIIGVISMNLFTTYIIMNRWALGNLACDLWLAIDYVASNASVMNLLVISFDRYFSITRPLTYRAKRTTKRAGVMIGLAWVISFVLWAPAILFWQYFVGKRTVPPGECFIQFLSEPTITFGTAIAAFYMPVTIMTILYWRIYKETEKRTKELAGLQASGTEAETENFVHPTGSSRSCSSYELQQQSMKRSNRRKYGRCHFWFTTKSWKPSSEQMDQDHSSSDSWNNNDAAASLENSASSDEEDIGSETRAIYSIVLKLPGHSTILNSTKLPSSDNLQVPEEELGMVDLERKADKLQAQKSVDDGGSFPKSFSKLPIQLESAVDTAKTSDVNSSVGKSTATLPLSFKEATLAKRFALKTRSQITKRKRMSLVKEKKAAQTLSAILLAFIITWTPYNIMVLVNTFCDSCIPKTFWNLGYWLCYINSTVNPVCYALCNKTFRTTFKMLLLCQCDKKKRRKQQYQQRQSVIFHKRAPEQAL

Test [10] deals with T8, 348 GPCRs (Homo sapiens, UniProt P35367).
T8 construct: expressed in transfected cells; host or cells: HEK293A
T8 sequence (P35367 whole entry): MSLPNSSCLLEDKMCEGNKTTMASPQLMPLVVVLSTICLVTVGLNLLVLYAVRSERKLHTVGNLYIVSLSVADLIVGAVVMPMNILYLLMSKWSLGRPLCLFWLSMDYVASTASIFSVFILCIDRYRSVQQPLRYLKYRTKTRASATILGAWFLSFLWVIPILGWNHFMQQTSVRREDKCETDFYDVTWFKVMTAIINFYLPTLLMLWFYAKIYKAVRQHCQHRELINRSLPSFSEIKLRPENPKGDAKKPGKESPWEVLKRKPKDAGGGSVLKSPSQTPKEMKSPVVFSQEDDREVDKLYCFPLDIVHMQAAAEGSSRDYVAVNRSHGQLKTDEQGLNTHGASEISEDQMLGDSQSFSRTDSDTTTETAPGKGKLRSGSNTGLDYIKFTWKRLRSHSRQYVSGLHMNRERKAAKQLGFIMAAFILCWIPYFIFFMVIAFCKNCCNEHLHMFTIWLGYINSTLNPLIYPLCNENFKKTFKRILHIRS
To be noted: 10µM, Favipiravir 100μM.

For test [11], the target named is T9, 348 GPCRs (Homo sapiens, UniProt Q9Y2T5).
T9 construct: expressed in transfected cells; host or cells: HEK293A
T9 sequence (Q9Y2T5 whole entry): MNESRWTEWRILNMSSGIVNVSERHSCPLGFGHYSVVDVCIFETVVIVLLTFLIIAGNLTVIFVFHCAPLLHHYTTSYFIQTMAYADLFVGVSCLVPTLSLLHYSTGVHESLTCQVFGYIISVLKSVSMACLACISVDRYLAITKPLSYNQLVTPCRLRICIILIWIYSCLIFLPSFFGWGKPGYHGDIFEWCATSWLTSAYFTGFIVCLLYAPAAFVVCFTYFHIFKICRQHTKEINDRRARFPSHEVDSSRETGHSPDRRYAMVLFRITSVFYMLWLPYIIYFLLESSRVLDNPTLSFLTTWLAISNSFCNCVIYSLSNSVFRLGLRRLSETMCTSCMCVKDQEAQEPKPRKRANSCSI

Test [12] concerns the target 348 GPCRs (Homo sapiens, UniProt P21554). As to conditions: read-out: % GPCR activation compared to TPA, CB1 (cannabinoid receptor 1); 10µM, Favipiravir 100μM.
Setting [13] is: 5-HT6 (5-hydroxytryptamine receptor 6), read-out: % GPCR activation compared to TPA.
Setting [14] is: GPCR α1D (adrenoceptor alpha 1D), read-out: % GPCR activation compared to TPA.
[15] abbreviates: GPR88 (G Protein-Coupled Receptor 88), read-out: % GPCR activation compared to TPA.
[16] abbreviates: HCA2, GPCR GPR109A (hydroxycarboxylic acid receptor 2 (HCA2)), read-out: % GPCR activation compared to TPA.
[17] abbreviates: GPR148 (G Protein-Coupled Receptor 148), read-out: % GPCR activation compared to TPA.
[18] abbreviates: GPCR α1A (adrenoceptor alpha 1A), read-out: % GPCR activation compared to TPA.
[19] abbreviates: ELTD1 (EGF, latrophilin and seven transmembrane domain containing 1), read-out: % GPCR activation compared to TPA.
Setting [20] is: GPCR M3 (Muscarinic acetylcholine receptor M3), read-out: % GPCR activation compared to TPA.
Setting [21] is: H1 (histamine receptor H1), read-out: % GPCR activation compared to TPA.
Where [22] appears, read: GPCR GPR52 (G protein-coupled receptor 52), read-out: % GPCR activation compared to TPA.
[23] abbreviates: read-out: % GPCR activation compared to TPA, 5-HT6 (5-hydroxytryptamine receptor 6).
The mark [24] stands for this setting: read-out: % GPCR activation compared to TPA, GPCR α1D (adrenoceptor alpha 1D).
The mark [25] stands for this setting: read-out: % GPCR activation compared to TPA, GPR88 (G Protein-Coupled Receptor 88).
The mark [26] stands for this setting: HCA2, read-out: % GPCR activation compared to TPA, GPCR GPR109A (hydroxycarboxylic acid receptor 2 (HCA2)).
[27] abbreviates: read-out: % GPCR activation compared to TPA, GPR148 (G Protein-Coupled Receptor 148).
[28] abbreviates: read-out: % GPCR activation compared to TPA, GPCR α1A (adrenoceptor alpha 1A).
Setting [29] is: read-out: % GPCR activation compared to TPA, ELTD1 (EGF, latrophilin and seven transmembrane domain containing 1).
Setting [30] is: read-out: % GPCR activation compared to TPA, GPCR M3 (Muscarinic acetylcholine receptor M3).
Where [31] appears, read: read-out: % GPCR activation compared to TPA, H1 (histamine receptor H1).
Setting [32] is: read-out: % GPCR activation compared to TPA, GPCR GPR52 (G protein-coupled receptor 52).

T1 sequence (P50406 whole entry): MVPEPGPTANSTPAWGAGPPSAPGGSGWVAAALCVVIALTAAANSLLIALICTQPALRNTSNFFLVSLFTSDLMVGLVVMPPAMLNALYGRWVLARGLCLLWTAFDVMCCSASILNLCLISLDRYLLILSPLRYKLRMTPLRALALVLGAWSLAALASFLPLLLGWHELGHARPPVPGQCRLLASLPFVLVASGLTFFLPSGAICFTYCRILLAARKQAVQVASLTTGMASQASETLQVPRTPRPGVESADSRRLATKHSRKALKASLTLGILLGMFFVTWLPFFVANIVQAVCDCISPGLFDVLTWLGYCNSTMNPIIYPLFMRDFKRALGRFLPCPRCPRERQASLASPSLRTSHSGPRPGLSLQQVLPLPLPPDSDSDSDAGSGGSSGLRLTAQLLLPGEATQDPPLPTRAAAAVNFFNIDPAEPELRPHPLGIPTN
Sequence of 348 GPCRs (Homo sapiens, UniProt Q8TDS4) (Q8TDS4 whole entry): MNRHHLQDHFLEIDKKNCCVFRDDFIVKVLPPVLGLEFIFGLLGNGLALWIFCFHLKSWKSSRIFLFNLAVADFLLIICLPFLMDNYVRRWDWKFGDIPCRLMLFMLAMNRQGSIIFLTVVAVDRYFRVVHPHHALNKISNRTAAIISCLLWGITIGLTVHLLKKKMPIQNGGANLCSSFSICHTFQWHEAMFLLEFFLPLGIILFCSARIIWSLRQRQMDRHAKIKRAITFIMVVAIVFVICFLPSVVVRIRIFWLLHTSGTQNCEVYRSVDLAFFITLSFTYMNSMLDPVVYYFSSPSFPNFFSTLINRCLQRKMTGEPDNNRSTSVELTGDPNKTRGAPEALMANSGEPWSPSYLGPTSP
T4 sequence (Q8TDV2 whole entry): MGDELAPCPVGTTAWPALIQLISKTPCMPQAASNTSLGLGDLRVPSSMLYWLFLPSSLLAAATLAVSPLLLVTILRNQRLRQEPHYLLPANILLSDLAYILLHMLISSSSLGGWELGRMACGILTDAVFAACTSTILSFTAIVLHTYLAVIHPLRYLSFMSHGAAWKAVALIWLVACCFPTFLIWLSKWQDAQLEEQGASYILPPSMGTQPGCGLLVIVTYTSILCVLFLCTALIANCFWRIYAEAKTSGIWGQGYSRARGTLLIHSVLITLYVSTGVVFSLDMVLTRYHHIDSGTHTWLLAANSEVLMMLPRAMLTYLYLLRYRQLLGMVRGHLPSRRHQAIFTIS
Sequence of 348 GPCRs (Homo sapiens, UniProt P21554) (P21554 whole entry): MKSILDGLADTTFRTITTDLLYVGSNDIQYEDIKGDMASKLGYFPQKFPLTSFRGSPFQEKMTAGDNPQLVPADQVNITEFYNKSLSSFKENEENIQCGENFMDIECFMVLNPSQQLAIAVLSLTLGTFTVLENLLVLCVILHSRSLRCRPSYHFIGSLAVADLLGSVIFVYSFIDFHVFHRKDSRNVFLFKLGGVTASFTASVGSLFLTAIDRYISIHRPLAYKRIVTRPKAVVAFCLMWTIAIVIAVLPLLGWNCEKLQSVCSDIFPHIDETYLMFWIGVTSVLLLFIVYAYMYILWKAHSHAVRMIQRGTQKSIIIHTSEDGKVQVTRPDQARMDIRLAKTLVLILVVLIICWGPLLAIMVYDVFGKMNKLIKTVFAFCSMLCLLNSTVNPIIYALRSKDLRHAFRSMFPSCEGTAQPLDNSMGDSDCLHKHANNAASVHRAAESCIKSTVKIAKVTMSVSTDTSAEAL

Turning to `CC(C)C(=O)OC[C@H]1O[C@@H](n2ccc(NO)nc2=O)[C@H](O)[C@@H]1O` [molnupiravir], the activation at 100 µM at 348 GPCRs [1] (setting [13]) is -0.864%; at 348 GPCRs [3] (setting [15]) it was -1.19%; at 348 GPCRs [5] (setting [17]) it was -3.32%; on 348 GPCRs [7] (setting [19]), -0.0765%; at 348 GPCRs [12], -1.3%. The activation at 10 µM on 348 GPCRs [2] (setting [14]) was 0.273%; at 348 GPCRs [4] (setting [16]) it was -37.5%; on 348 GPCRs [6] (setting [18]) it was 0.335%; on 348 GPCRs [9] (setting [20]), -0.147%; on 348 GPCRs [10] (setting [21]), -2.24%; on 348 GPCRs [11] (setting [22]), -1.34%. In addition, at 348 GPCRs [8], the “% GPCR activation compared to TPA” value is -0.994%.
For the molecule `CC(C)OC(=O)[C@H](C)N[P@](=O)(OC[C@H]1O[C@@H](n2ccc(=O)[nH]c2=O)[C@](C)(F)[C@@H]1O)Oc1ccccc1` [sofosbuvir], the activation at 100 µM on 348 GPCRs [1] (setting [23]) was -1.12%; on 348 GPCRs [3] (setting [25]), -0.818%; on 348 GPCRs [5] (setting [27]), -1.48%; at 348 GPCRs [7] (setting [29]) it was 0.08%; at 348 GPCRs [12], -1.13%. Also, the activation at 10 µM is 0.0197% at 348 GPCRs [2] (setting [24]); -29.6% at 348 GPCRs [4] (setting [26]); 0.301% on 348 GPCRs [6] (setting [28]); -1.32% at 348 GPCRs [9] (setting [30]); -0.312% at 348 GPCRs [10] (setting [31]); -2.66% on 348 GPCRs [11] (setting [32]). The “% GPCR activation compared to TPA” value on 348 GPCRs [8] is given as -1.207%.
Turning to `N#C[C@@]1(c2ccc3c(N)ncnn23)O[C@H](CO)[C@@H](O)[C@H]1O` [GS441524], the activation at 100 µM is -0.422% on 348 GPCRs [1] (setting [13]); -2.34% on 348 GPCRs [3] (setting [15]); -2.05% on 348 GPCRs [5] (setting [17]); -0.971% on 348 GPCRs [7] (setting [19]); 0.0409% on 348 GPCRs [12]. The activation at 10 µM on 348 GPCRs [2] (setting [14]) is -1.11%; at 348 GPCRs [4] (setting [16]), 0.689%; on 348 GPCRs [6] (setting [18]), 0.0114%; at 348 GPCRs [9] (setting [20]), 3.5%; at 348 GPCRs [10] (setting [21]), -5.47%; on 348 GPCRs [11] (setting [22]), -1.15%. Also, the “% GPCR activation compared to TPA” value at 348 GPCRs [8] is recorded as -1.385%.
As for `NC(=O)c1nc(F)cnc1O` [favipiravir, 6-fluoro-3-hydroxy-2-pyrazinecarboxamide], the activation at 100 µM was -1.66% on 348 GPCRs [1] (setting [13]); 1.16% on 348 GPCRs [2] (GPCR α1D (adrenoceptor alpha 1D), 100μM, read-out: % GPCR activation compared to TPA); -1.1% on 348 GPCRs [3] (setting [15]); 1.41% at 348 GPCRs [4] (HCA2, GPCR GPR109A (hydroxycarboxylic acid receptor 2 (HCA2)), 100μM, read-out: % GPCR activation compared to TPA); -3.11% at 348 GPCRs [5] (setting [17]); 0.574% at 348 GPCRs [6] (GPCR α1A (adrenoceptor alpha 1A), 100μM, read-out: % GPCR activation compared to TPA). Moreover, the activation at 100 µM on 348 GPCRs [7] (setting [19]) was -0.0903%; at 348 GPCRs [9] (GPCR M3 (Muscarinic acetylcholine receptor M3), 100μM, read-out: % GPCR activation compared to TPA), 0.164%; on 348 GPCRs [11] (GPCR GPR52 (G protein-coupled receptor 52), 100μM, read-out: % GPCR activation compared to TPA) it was -2.31%; on 348 GPCRs [12], 1.89%. The “% GPCR activation compared to TPA” value at 348 GPCRs [8] is recorded as 0.5554%. Moreover, on 348 GPCRs [10] (setting [21]), the activation at 10 µM worked out at 0.654%.
Consider `CCC(CC)COC(=O)[C@H](C)N[P@](=O)(OC[C@H]1O[C@@](C#N)(c2ccc3c(N)ncnn23)[C@H](O)[C@@H]1O)Oc1ccccc1` [remdesivir], for which the activation at 100 µM on 348 GPCRs [1] (setting [23]) is 0.785%; on 348 GPCRs [3] (setting [25]), -0.608%; on 348 GPCRs [5] (setting [27]) it was -2.35%; on 348 GPCRs [7] (setting [29]) it was 0.0637%; at 348 GPCRs [12], -4.06%. The activation at 10 µM was 1.67% at 348 GPCRs [2] (setting [24]); 2.36% at 348 GPCRs [4] (setting [26]); 0.479% at 348 GPCRs [6] (setting [28]); 2.85% on 348 GPCRs [9] (setting [30]); -3.69% at 348 GPCRs [10] (setting [31]); -0.476% at 348 GPCRs [11] (setting [32]). Also, at 348 GPCRs [8], the “% GPCR activation compared to TPA” value was -0.07183%.

Values taken from paper PMC10175918 (Communications Biology, 2023).
